Assay results reported in article PMC10974533, “Cationicity Enhancement on the Hydrophilic Face of Ctriporin Significantly Reduces Its Hemolytic Activity and Improves the Antimicrobial Activity against Antibiotic-Resistant ESKAPE Pathogens” (Toxins, 2024).
Where a SMILES comes first, the peptide text is derived from it.

How the values were obtained:
Assay type in all cases: cell-based
A. baumannii ATCC19606 = assay: MIC, broth dilution, standard strain; conditions: broth dilution (CLSI), MHB, 37 °C, 16–20 h
Description: (§1) The standard strains, including S. aureus ATCC29213 and ATCC25923, E. faecalis ATCC29212, E. coli ATCC25922 and ATCC35218, A. baumannii ATCC19606, K. pneumoniae ATCC700603, and P. aeruginosa ATCC27853, were purchased from the China Center of Type Culture Collection (CCTCC). The clinical strains of the ESKAPE pathogens were isolated from the affiliated hospitals of Hubei University of Medicine. All of them were stored at −80 °C before use. The drug sensitivities of the clinical strains were determined by the Kirby–Bauer test.
(§2) The MICs were determined using the broth dilution method according to the guidelines of the Clinical and Laboratory Standards Institute (CLSI), as described in the previous studies. Briefly, the bacterial cells were incubated in Mueller–Hinton broth (MHB, Oxoid, Basingstoke, UK) at 37 °C and 150 rpm to the mid-growth phase and diluted to achieve a final concentration of 5 × 10^5 colony-forming units per milliliter (CFU/mL). Then, the cells were mixed with each peptide in different concentrations (1, 2, 4, 8, 16, 32, and 64 μg/mL). […] All experiments were repeated at least three times.

E. coli ATCC25922 = assay: MIC, broth dilution, standard strain; conditions: broth dilution (CLSI), MHB, 37 °C, 16–20 h
Description: as §1, §2

E. coli ATCC35218 = assay: MIC, broth dilution, standard strain; conditions: broth dilution (CLSI), MHB, 37 °C, 16–20 h
Description: as §1, §2

E. faecium ATCC29212 = assay: MIC, broth dilution, standard strain; conditions: broth dilution (CLSI), MHB, 37 °C, 16–20 h
Description: as §1, §2

K. pneumoniae ATCC700603 = assay: MIC, broth dilution, standard strain; conditions: broth dilution (CLSI), MHB, 37 °C, 16–20 h
Description: as §1, §2

P. aeruginosa ATCC27853 = assay: MIC, broth dilution, standard strain; conditions: broth dilution (CLSI), MHB, 37 °C, 16–20 h
Description: as §1, §2

S. aureus ATCC25923 = assay: MIC, broth dilution, standard strain; conditions: broth dilution (CLSI), MHB, 37 °C, 16–20 h
Description: as §1, §2

S. aureus ATCC29213 = assay: MIC, broth dilution, standard strain; conditions: broth dilution (CLSI), MHB, 37 °C, 16–20 h
Description: as §1, §2

standard ESKAPE strains = conditions: broth dilution (CLSI), MHB
Description: The ESKAPE pathogens represent the main threat to public health concerning antimicrobial resistance. Therefore, we first evaluated the antimicrobial activities of Ctriporin and its analogs against the standard ESKAPE strains. The minimum inhibitory concentration (MIC) was chosen as the index for the evaluation of each peptide’s activity. […] Note that the MICs of CM4 and CM7 are 4–32 and 8–32 μg/mL, respectively, indicating the existence of significant bacterial species deviations for the antimicrobial activity of these peptides. In addition, the replacement of specific residues, especially Pro^7, may harm the antimicrobial activities of the peptide.
as §1, §2

[1] = 5 × 10^5 CFU/mL, OD630, repeated at least three times

CC[C@H](C)[C@H](NC(=O)[C@H](C)NC(=O)CNC(=O)[C@@H]1CCCN1C(=O)[C@@H](NC(=O)[C@H](CC(C)C)NC(=O)CNC(=O)[C@H](Cc1c[nH]c2ccccc12)NC(=O)[C@H](CC(C)C)NC(=O)[C@@H](N)Cc1ccccc1)[C@@H](C)CC)C(=O)N[C@@H](CO)C(=O)N[C@@H](C)C(=O)N[C@H](C(=O)N[C@H](C(=O)N[C@@H](CO)C(=O)N[C@@H](CC(C)C)C(=O)N[C@H](C(=O)N[C@@H](CCCCN)C(=O)N[C@@H](CCCCN)C(N)=O)[C@@H](C)CC)[C@@H](C)O)C(C)C [Ctriporin] (H-FLWGLIPGAISAVTSLIKK-NH2; N-terminus assumed)
MICs (A. baumannii ATCC19606; [1]): 16 µg/mL | MICs (A. baumannii ATCC19606; value in parentheses): 8.0 µM | MICs (E. coli ATCC25922; [1]): 64 µg/mL | MICs (E. coli ATCC25922; value in parentheses): 31.8 µM | MICs (E. coli ATCC35218; [1]): > 64 µg/mL | MICs (E. coli ATCC35218; value in parentheses): > 31.8 µM | MICs (E. faecium ATCC29212; [1]): 64 µg/mL | MICs (E. faecium ATCC29212; value in parentheses): 31.8 µM | MICs (K. pneumoniae ATCC700603; [1]): > 64 µg/mL | MICs (K. pneumoniae ATCC700603; value in parentheses): > 31.8 µM | MICs (P. aeruginosa ATCC27853; [1]): > 64 µg/mL | MICs (P. aeruginosa ATCC27853; value in parentheses): > 31.8 µM | MICs (S. aureus ATCC25923; [1]): 32 µg/mL | MICs (S. aureus ATCC25923; value in parentheses): 15.9 µM | MICs (S. aureus ATCC29213; [1]): 16 µg/mL | MICs (S. aureus ATCC29213; value in parentheses): 8.0 µM | MICs against S. aureus and A. baumannii (standard ESKAPE strains; standard strains of S. aureus and A. baumannii): 16 to 32 µg/mL | MICs for other tested bacterial species (standard ESKAPE strains; standard strains other than S. aureus and A. baumannii): ≥ 64 µg/mL
